Here are results for 31 molecules from PubChem BioAssay (NCI).

The structures appear in SMILES notation. “And” between values parts separate entries of the source, which are not always exact repeats. Identical values can stand only once.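 Step 1: Grow cells in 96-well plates. Step 2: Expose to compound for 48 hours at 5 concentrations. Step 3: Interpolate endpoints linearly; if unreached, use highest concentration. Abbreviation: GI50, concentration required for 50% inhibition of growth. TGI: total growth inhibition.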

Common to all, as to assay: DTP human tumour cell line panel, 48 h
The test system of assay [1] is COLO 205 colon.
Assay [2] deals with NCI-H23 lung.
In assay [3] the test system is K-562 leukemia.
The test system of assay [4] is HL-60(TB) leukemia.
The test system of assay [5] is A549 NSCLC.
The test system of assay [6] is SK-MEL-5 melanoma.
The subject of assay [7] is MOLT-4 leukemia.
Assay [8] deals with 786-0 renal.
Assay [9] concerns PC-3 prostate.

For the molecule `CCOC(=O)[C@H]1CSC[C@@H](C(=O)OC)N1`, the TGI in assay [1], in assay [2], in assay [3], in assay [4], in assay [5] and in assay [6] was > 100 µM each time. Besides, the TGI in [7] and in assay [8] was > 100 µM throughout.

On to `COC(=O)[C@@]1(O)CC(C)C=C1C=O` (stereo partly drawn), for which the TGI in assay [1] is > 100 µM; in assay [2], > 100 µM; in assay [3] it was > 100 µM; in assay [4] it was 51.6 µM; in assay [5], 60.9 µM; in [6], > 100 µM. Moreover, the TGI in [7] and in assay [8] was > 100 µM each time.

Regarding `COc1ccc(-c2nnc(-c3c(C)n(C)n(-c4ccccc4)c3=O)o2)cc1`, the TGI in [1], in assay [2], in [3], in assay [4], in assay [5] and in [7] was > 100 µM each time. The TGI in assay [8] was > 100 µM.

For `O=[P+](O)c1cc2ccccc2c2ccccc12`, the TGI in assay [1], in [2], in [3], in assay [4], in [5] and in assay [6] was > 100 µM throughout. Besides, the TGI in assay [7] and in assay [8] was > 100 µM each time.

As for `O=C(O)C(C(=O)C(=O)C(C(=O)O)c1ccc(Cl)cc1)c1ccc(Cl)cc1` (stereo not drawn), the total growth inhibition concentration (TGI) in [1] came out at 18.8 µM; in [2], 5.6 µM; in assay [3], 10.7 µM; in [4], 6.82 µM; in [5], 11.2 µM; in [7], 5 µM. The molecule also registered a TGI in assay [8] of 15.7 µM.

Consider `CC(C)N1CCC2(CC1)NNc1ncccc1-n1cccc12`, for which the TGI in [1], in [2], in assay [3], in [4], in assay [5] and in [6] was > 100 µM throughout. In addition, the total growth inhibition concentration (TGI) in [7] and in assay [8] was > 100 µM in each case.

As for `CCC(=O)C(C)C(=O)C(=O)C(=O)OC` (stereo not drawn), the TGI is > 100 µM in assay [1]; > 100 µM in assay [2]; > 100 µM in assay [3]; > 64.4 µM in [4]; > 100 µM in assay [5]; > 100 µM in [6]. Further, the values for the TGI in assay [7] and in assay [8] were > 91.5 µM and > 100 µM, respectively.

Turning to `Cc1ccc(-c2cc(=O)c3cc(C)c(C)c(C(=O)O)c3o2)cc1`, the TGI in assay [1], in assay [2], in [5], in assay [6], in assay [7] and in [8] was > 100 µM in each case.

With `CC(C)(c1ccc(Oc2ccc(C#N)c(C#N)c2)cc1)c1ccc(Oc2ccc(C#N)c(C#N)c2)cc1`, the GI50 in [1], in assay [2], in assay [3], in assay [4], in assay [5] and in assay [6] was > 100 µM in each case. For the same molecule, the GI50 in assay [7] and in [8] was > 100 µM each time. Moreover, the TGI in assay [1], in assay [2], in assay [3], in [4], in assay [5] and in assay [6] was > 100 µM in each case. Besides, the TGI in assay [7] and in [8] was > 100 µM each time.

For the molecule `CN(C(=O)C12C3(C(=O)C(C)(C)C)C4C5(C#N)C3C1(C(=O)C(C)(C)C)C5C42C(=O)C(C)(C)C)C(C)(C)C` (stereo not drawn), the TGI in assay [1], in assay [2], in assay [3], in assay [4], in assay [5] and in assay [6] was > 50 µM each time. The TGI in assay [7] and in assay [8] was > 50 µM throughout.

With `CC(=O)OC(C)(C)/C=C/C(=O)[C@](C)(O)[C@H]1[C@H](O)C[C@@]2(C)[C@@H]3CC=C4[C@@H](C[C@H](O)C(=O)C4(C)C)[C@]3(CO)C(=O)C[C@]12C`, the GI50 is 0.159 µM in assay [1]; 0.621 µM in assay [2]; 0.164 µM in assay [3]; 0.3 µM in [4]; 0.273 µM in assay [5]; 0.171 µM in assay [6]. The GI50 in [8] was 0.2 µM. Besides, the TGI was 14.7 µM in [2]; 29.5 µM in assay [3]; 0.922 µM and 1.33 µM in assay [4]; 22.6 µM in [5]; 0.894 µM and 1.33 µM in assay [6]; 58.3 µM in assay [7]. For the same molecule, in assay [8], the TGI is 0.889 µM and 0.475 µM.

On to `O=c1nc(NC(c2ccccc2)(c2ccccc2)c2ccccc2)ccn1CCO`, for which the TGI in assay [1], in assay [2], in assay [3], in assay [4], in assay [5] and in assay [7] was > 100 µM in each case. Moreover, in assay [8], the TGI was > 100 µM.

Consider `CCO/C=C1\N=C(C(Cl)c2ccccc2)OC1=O` (stereo not drawn), for which the TGI in assay [1], in assay [2], in [3], in assay [4], in assay [5] and in [6] was > 100 µM throughout. For the same molecule, the TGI in assay [7] and in assay [8] was > 100 µM in each case.

As to `CC(C)(O)[C@@H]1CC[C@@]2(C)CCC[C@H](O)[C@H]2C1`, the TGI in assay [1], in [2], in [3], in assay [4], in assay [5] and in assay [6] was > 100 µM each time. Moreover, the TGI in assay [7] and in assay [8] was > 100 µM throughout.

In the case of `COc1ccc(OC)c(NCC#N)c1`, the TGI in [1], in assay [2], in [3], in [4], in [5] and in assay [6] was > 100 µM throughout. The TGI in assay [7] and in assay [8] was > 100 µM in each case.

Regarding `COC1=C2C[C@H](O)C(C)C[C@@]2(OC)OC1=O` (stereo partly drawn), the TGI in assay [1], in assay [2], in assay [3], in [4], in assay [5] and in assay [6] was > 100 µM in each case. The TGI in assay [7] and in assay [8] was > 100 µM throughout.

As to `O=C1C2CC=CCC2C(=O)C12CCc1ccccc12` (stereo not drawn), the TGI in assay [1], in assay [2], in assay [3], in [4], in [5] and in assay [8] was > 100 µM in each case.

`Nc1nc(NC2C=C(CO)C(O)C2O)c([N+](=O)[O-])c(=O)[nH]1` (stereo not drawn): the total growth inhibition concentration (TGI) in assay [1], in assay [2], in [3], in [5], in [6] and in assay [7] was > 100 µM each time. Further, the TGI in assay [8] is > 100 µM.

On to `COc1cc([C@H]2c3cc4c(cc3[C@H](NCc3ccc([N+](=O)[O-])cc3)C3COC(=O)[C@H]32)OCO4)cc(OC)c1O` (stereo partly drawn), for which the TGI in [1] is > 43.9 µM; in [2], 1.91 µM; in assay [3], > 100 µM; in assay [5], 2.23 µM; in [6], 6.61 µM; in assay [7], > 100 µM. In addition, the TGI in assay [8] was 2.78 µM.

For `CCCCCCCCC(O)C#CC(N)=O` (stereo not drawn), the TGI in assay [2] is 35.6 µM; in [3], 75.4 µM; in assay [4], 40.3 µM; in [5] it was 36.2 µM; in assay [6] it was 24.3 µM; in assay [7] it was 66.1 µM. The molecule also displayed a TGI in [8] of 25.3 µM.

As for `NC(=O)C(=Cc1ccc(CP(=O)(O)O)cc1)C(N)=O`, the total growth inhibition concentration (TGI) in assay [1], in assay [2], in assay [3], in assay [5], in assay [6] and in assay [7] was > 100 µM in each case. Besides, the TGI in assay [8] is > 100 µM.

Turning to `CCCCCCCC(=O)OCC1OC(n2cc(F)c(=O)[nH]c2=O)C(NC(=O)OCc2ccccc2)C(O)C1O` (stereo not drawn), the TGI in assay [1] was > 100 µM; in [2], > 100 µM; in assay [3] it was > 100 µM; in [4], > 100 µM; in assay [5] it was > 100 µM; in assay [6] it was 23.7 µM. Besides, the TGI in assay [7] and in [8] was > 100 µM in each case.

Take `COc1cc(C=O)c(-c2cc3c(cc2C2(C)OCCS2)OCO3)c(OC)c1OC` (stereo not drawn): the TGI in assay [1] was 16.1 µM; in assay [2], 92.9 µM; in assay [3], > 239 µM; in [4], 82.1 µM; in [5] it was > 97 µM; in assay [6], 35.3 µM. The TGI is > 239 µM in [7] and 23.6 µM in [8].

For `COc1ccc(SC2c3ccc(C)cc3Oc3nc(N)c(C#N)c(N)c32)cc1` (stereo not drawn), the GI50 in assay [2] is 1.67 µM; in [3], 2.66 µM; in [4], 1.86 µM; in [5], 2.19 µM; in assay [6] it was 1.77 µM; in [9], 1.6 µM. Besides, the values for the GI50 in [7] and in assay [8] were 1.96 µM and 1.65 µM, respectively. The TGI in assay [2] worked out at 3.31 µM; in assay [3], 8.44 µM; in [4], 3.99 µM; in [5], 4.21 µM; in [6], 3.15 µM; in [9], 3.11 µM. The TGI was found to be 5.61 µM in assay [7] and 3.01 µM in assay [8].

Regarding `COC(=O)c1ccc(NC(=O)c2cc(OC)c(OC)c(OC)c2)cc1`, the TGI is 12 µM in [3]; 4.8 µM in assay [4]; > 100 µM in assay [5]; > 100 µM in [7]; > 100 µM in [8].

Turning to `O=C(O)c1ccc([S-])cc1.[Au+].c1ccc(CN2[CH-]N(Cc3ccccc3)C(c3ccccc3)=C2c2ccccc2)cc1`, the GI50 in [1] was 0.269 µM; in [2], 0.314 µM; in assay [3], 0.33 µM; in assay [4], 0.321 µM; in assay [5], 0.358 µM; in [6], 0.281 µM. Further, the GI50 in assay [9] is 0.308 µM; in assay [8] it was 0.376 µM. For the same molecule, the total growth inhibition concentration (TGI) came out at 0.824 µM in assay [1]; 1.21 µM in assay [2]; 1.67 µM in [3]; 1.29 µM in assay [4]; 1.63 µM in assay [5]; 1.03 µM in [6]. The figures for the TGI in [9] and in [8] were 1.44 µM and 1.59 µM, respectively.

Regarding `O=c1cc(-c2ccccc2)nc(/C=C(\O)c2ccncc2)n1-c1ccccc1`, the TGI in assay [1], in assay [2], in assay [3], in [4], in [5] and in [6] was > 100 µM throughout. Also, the TGI in [8] is > 100 µM.

In the case of `NC(CC(=O)Nc1ccc(Cl)cc1)=Nc1ccccc1`, the TGI in assay [1], in assay [2], in assay [3], in assay [4], in assay [5] and in assay [6] was > 100 µM in each case. In addition, the TGI in [7] and in assay [8] was > 100 µM each time.

As for `CCCCN=C(NC#N)N(Cc1ccccc1)Cc1ccccc1`, the TGI is 32.5 µM in assay [1]; 77.4 µM in [2]; 88.1 µM in assay [3]; 49.6 µM in assay [4]; > 100 µM in [5]; 26.1 µM in [6]. The TGI in assay [7] was 48.5 µM; in [8] it was > 100 µM.

As for `O=c1cc(-c2ccccc2)[nH]c2c(Cl)cccc12`, the TGI in assay [1] was > 100 µM; in assay [2], > 100 µM; in [3], > 100 µM; in assay [4] it was > 100 µM; in [5], > 100 µM; in assay [6], 45.4 µM. For the same molecule, the TGI in [7] and in assay [8] was > 100 µM in each case.

On to `Cc1ccc(C(=O)N2c3ccccc3N(C)n3cccc3C2CC(=O)O)cc1` (stereo not drawn), for which the TGI in [1], in assay [2], in assay [3], in assay [4], in assay [5] and in assay [6] was > 100 µM each time. Further, the TGI in assay [7] and in assay [8] was > 100 µM throughout.
